The data set is described as follows: gradient 5% acetonitrile 3 min, to 50% in 2 min, to 85% in 15 min, held 3 min, 100 µL/min. Particulars: column: Zorbax Extend-C18 2.1 x 50 mm; eluents: water / acetonitrile, 0.1% formic acid. The gist of the method: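 A Zorbax Extend-C18 column (2.1 × 50 mm, 1.8 μm) run at 100 μL/min with water and acetonitrile, both containing 0.1% formic acid, separated mixtures of ~100 pure standards. The HPLC was coupled to a quadrupole time-of-flight mass spectrometer operated in positive and negative ionization mode, with dead and dwell volumes of 40 μL and 900 μL. Each retention time was taken from a computationally picked adduct peak that was then manually inspected.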
In the case of `CCOC(=O)C1CCN(S(=O)(=O)c2cccc(-c3nnc(-c4ccc(C)cc4)o3)c2)CC1`, the RP-LC retention time came out at 1090 s.

Regarding `Cc1ccc(C(=O)N2CCN(c3nnc4ccc(C(F)(F)F)cn34)CC2)s1`, the RP-LC retention time is 762 s. The same measure for `Cc1ccc(-c2nnc(Cc3nc(-c4cccc(C(F)(F)F)c4)no3)o2)cc1C`: 1220 s; for `Cc1cccc(CNC(=O)Cc2csc3nc(-c4ccccc4)cn23)c1`: 880 s; for `O=C(NC1CC1)[C@@H]1C[C@H](Oc2ccccc2)CN1C(=O)c1cccs1`: 699 s. Then `CCC(C(=O)NCCc1c(C)nn(CC)c1C)n1c2ccccc2c2cnn(C)c(=O)c21` (centres undefined), with 698 s; and `CCCCNC(=O)CCc1cc2cc(OC)ccc2[nH]c1=O`, with 664 s. Regarding `CCN1C(=O)CCc2cc(NS(=O)(=O)c3ccccc3Cl)ccc21`, the RP-LC retention time was determined as 751 s.

In turn, `Cn1cc(-c2nc(C(=O)Nc3ccc(Cl)cc3)cs2)c2cccnc21` showed an RP-LC retention time of 1090 s. The same measure for `O=C(COc1ccc2c3c(c(=O)oc2c1)CCC3)N[C@H](Cc1c[nH]c2ccccc12)C(=O)O`: 793 s. In turn, `CCOc1ccc(-c2noc(N3CCC(C(=O)NCC4CCCO4)CC3)n2)cc1OC` (centres undefined) yielded an RP-LC retention time of 749 s.

Regarding `CCN1CCN(CC2CCN(S(=O)(=O)c3ccc4c(c3)CCC4)CC2)CC1`, the RP-LC retention time is 624 s. The same measure for `CCC(C)NC(=O)N1CCN(Cc2nc3cccnc3n2-c2ccc(OC)cc2)CC1` (centres undefined): 621 s. With `CCOc1ccc(CNC(=O)CN2C(=O)CSc3cccn3-c3ccccc32)cc1`, the RP-LC retention time came out at 914 s. The same measure for `COc1ccc(-c2nc(-c3ccc(S(=O)(=O)N4CCCCC4)cc3)no2)cc1`: 1280 s; for `CCOCCOC1CCN(C(=O)Nc2ccc3c(c2)OCCO3)CC1`: 708 s; for `C#CCOCC(O)CN1CCN(c2cc(Cl)ccc2C)CC1` (centres undefined): 577 s.

`COc1ccc(-c2nc3cnccn3c2Nc2ccc(C(=O)NCC3CCCO3)cc2)cc1OC` (centres undefined) had an RP-LC retention time of 645 s. Then `Cc1cccc(NC(=O)c2cn(C)nc2S(=O)(=O)N2CCSCC2)c1`, with 941 s; and `Cc1ccc(C)c(N2CCN(c3ccnc(SCC(=O)NCc4ccc(Cl)cc4)n3)CC2)c1`, with 942 s; and `Cc1c(C(=O)NCc2ccco2)nnn1-c1ccc(Br)cc1`, with 844 s. The compound `Cc1cn(C)c(CC(=O)N2CCCCCC2)c1C(=O)O` showed an RP-LC retention time of 664 s. Regarding `COc1ccc(-c2cnn3c(C)cc(C)nc23)cc1S(=O)(=O)NCCN1CCCC(C)C1` (centres undefined), the RP-LC retention time came out at 657 s. Then `CCN1CCN(c2cc(C)c3cc(NC(=O)CC4CCCC4)ccc3n2)CC1`, with 595 s; and `CC(=O)c1cccc(NC(=O)COc2ccccc2-c2nnc(-c3ccccc3)o2)c1`, with 1190 s. Then `O=C(NC1CC1)C1CCN(c2nc3ccc(-c4cccc(F)c4)nc3s2)CC1`, with 918 s; and `COc1ccc(NC(=O)Cn2nc3c(Oc4cccc(Cl)c4)nccn3c2=O)cc1`, with 859 s.

On to `Cc1ccc(-n2nc(C)c3sc(N(C)CC(=O)N4CCN(c5ccccn5)CC4)nc32)cc1`, for which the RP-LC retention time is 709 s. Then `COCc1noc(C2CCCCN2C(=O)CCc2ccccc2OC)n1` (centres undefined), with 902 s; and `COC(=O)c1ccccc1S(=O)(=O)N1CCN(Cc2nnnn2-c2ccccc2)CC1`, with 812 s; and `CCn1nc(N2CCCC(N)C2)ccc1=O` (centres undefined), with 497 s.

With `O=C(CCc1c(-c2ccccc2)nc2ccccn12)NCc1cccc(Br)c1`, the RP-LC retention time turned out to be 691 s. On to `CCCNC(=O)C1CCN(c2ccc(SCC(=O)NCc3ccccc3Cl)nn2)CC1`, for which the RP-LC retention time was found to be 644 s.

As to `CCc1ccc(S(=O)(=O)N2CCCC(Cn3c(C)nc4cccnc43)C2)cc1` (centres undefined), the RP-LC retention time is 769 s.

Turning to `Cc1cc(NC(=O)CN(C)CCC#N)nc2c1c(=O)oc1ccccc12`, the RP-LC retention time came out at 694 s. In turn, `COCCN1C(=O)CCc2cc(NS(=O)(=O)c3ccc(F)cc3F)ccc21` returned an RP-LC retention time of 723 s. With `COc1ccc(NS(=O)(=O)c2ccc(-c3c(C)noc3C)cc2)cc1`, the RP-LC retention time amounted to 877 s.

For the compound `Cc1ccc(N2C(=O)CN(S(=O)(=O)c3ccccc3)CC2(C)C(=O)NC2CCCC2)c(C)c1` (centres undefined), the RP-LC retention time was 983 s. The same measure for `Cc1cc2n(n1)CCCN2C(=O)CCC(=O)N1CCN(c2ccc(Cl)cc2)CC1`: 758 s; for `O=C(NCc1ccco1)c1scc(-c2ccc(F)cc2)c1-n1cccc1`: 1110 s; for `Cc1ccc(Cl)cc1NC(=O)N1C[C@@H](F)C[C@H]1C(=O)N1CCCCC1`: 746 s.

`CCOc1ccc(C(=O)N2CCCC2c2nc(-c3ccc(OC)c(OC)c3)no2)cc1` (centres undefined): the RP-LC retention time is 927 s.

With `CCOC(=O)c1cn(Cc2cccc(C)c2)c2nc(C)ccc2c1=O`, the RP-LC retention time was found to be 925 s.

`Fc1ccc(Cn2cc(-c3noc(-c4cccc(F)c4)n3)nn2)cc1` yielded an RP-LC retention time of 1010 s. `CCc1cc(C(=O)N2CCN(CC)CC2)nc2cc(-c3ccsc3)nn12`: the RP-LC retention time amounted to 664 s.

Take `Cc1cccc(NC(=O)NCCc2cn(CC(C)C)c3ncccc23)c1C`: the RP-LC retention time is 839 s. Then `CCOC(=O)C1CCN(C(=O)C(C)n2c(=O)c(C(F)(F)F)nc3ccccc32)CC1` (centres undefined), with 921 s.

Take `Cc1ccc(NC(=O)Cn2nc(N3CCCC3)c3ccccc3c2=O)c(F)c1`: the RP-LC retention time was 885 s.

The compound `CN1CCN(c2ccc(Nc3cc(-c4cccc(-n5ccc6cc(C7CC7)cc(F)c6c5=O)c4CO)cn(C)c3=O)nc2)CC1` gave an RP-LC retention time of 702 s. The same measure for `COc1ccc2c(c1)C1CC(C)(NC(=O)C1S(=O)(=O)c1ccc(C(C)C)cc1)O2` (centres undefined): 1010 s; for `COc1ccc(N2CCN(c3cc(SCC(=O)Nc4cccc(Cl)c4C)ncn3)CC2)cc1`: 1060 s. Then `O=C(C1CCCO1)N1CCCN(Cc2nc(-c3ccc(Cl)cc3)no2)CC1` (centres undefined), with 706 s; and `COc1ccc(-c2nc(-c3ccc4c(c3)nnn4CCN(C)C)no2)c(C)c1`, with 700 s. Regarding `CCCCS(=O)(=O)c1cc2c(cc1NC(=O)Cc1ccc(C)cc1)n(C)c(=O)n2C`, the RP-LC retention time worked out at 931 s. `CCCCN1CCN(Cc2nc(-c3ccc(N4CCSCC4)nc3)no2)CC1` registered an RP-LC retention time of 653 s. In turn, `CCOC(=O)C1CCN(C(=O)Cn2c(=O)oc3ccc(C(=O)N4CCCC4)cc32)CC1` registered an RP-LC retention time of 699 s. Take `Cc1ccccc1-c1nc(N)n(C(=O)C2CC2)n1`: the RP-LC retention time came out at 876 s. `CCCCCn1c(=O)c2ccccc2n(Cc2nc(-c3ccccc3OCC)no2)c1=O` registered an RP-LC retention time of 1250 s. `CCC(CC)C(=O)Nc1ccc(-c2nc(-c3ccc(Cl)cc3)no2)cc1` had an RP-LC retention time of 639 s.

With `CCn1c(N2CCN(C(=O)NCc3ccccc3)CC2)nc2ccccc21`, the RP-LC retention time was 646 s.

Compound `CCc1ccc(CCN2C(=O)c3ccccc3C2=O)nc1` displayed an RP-LC retention time of 667 s. The compound `O=C(c1cccc(F)c1)N1CCN(c2cc(-c3cccs3)[nH]n2)CC1` showed an RP-LC retention time of 774 s. In the case of `O=C(N[C@H]1C[C@@H]2C[C@H]1CN2C(=O)Nc1ccc(C(F)(F)F)cc1)c1cccs1`, the RP-LC retention time was 840 s.

`O=C(c1cncc(Br)c1)N1CCC(OCC2CC2)C1` (centres undefined) came in with an RP-LC retention time of 730 s.

Compound `COc1ccccc1CNC(=O)c1ccc2c(c1)N(C)C(=O)C1CCCCN21` (centres undefined) came in with an RP-LC retention time of 880 s. Consider `COc1ccc(-c2csc(NC(=O)CS(=O)(=O)c3ccc(Cl)cc3)n2)cc1`, for which the RP-LC retention time is 1010 s.

The compound `CC(C)c1cc(C(=O)N2CCCCC2)nc2ccnn12` returned an RP-LC retention time of 767 s. With `COc1ccc(-c2cn3c(CC(=O)NCc4ccc(C)o4)csc3n2)cc1OC`, the RP-LC retention time was 686 s. In the case of `O=C(NCc1ccccc1)C1CCCN(S(=O)(=O)c2c[nH]c(C(=O)N3CCCC3)c2)C1` (centres undefined), the RP-LC retention time came out at 748 s. In the case of `Cc1ccccc1-n1c(=O)c2sccc2n(Cc2nc(-c3ccc(OC(C)C)cc3)no2)c1=O`, the RP-LC retention time is 1120 s. The same measure for `O=C(NCc1ccc(Cl)cc1)C(=O)NCC1(c2cccs2)CCCC1`: 1120 s. `CN(C)CCOc1ccc(I)cc1Cc1ccccc1`: the RP-LC retention time was 739 s. Then `CC(C)(C)c1cc(N2CCN(c3ccccn3)CC2)n2ncc(-c3ccccc3)c2n1`, with 1040 s; and `O=C(CCc1nnc2ccc(NCc3ccc(F)cc3)nn12)N1CCN(c2ccccn2)CC1`, with 612 s.

As to `COc1ccc2c(c1)CCc1sc(NC(=O)c3cccc(Cl)c3)nc1-2`, the RP-LC retention time was 1180 s. Then `CCOc1ccc(-n2ccn3cc(-c4cccc(Cl)c4)nc3c2=O)cc1`, with 947 s; and `O=S1(=O)C[C@H](N2CCN(c3ncccn3)CC2)[C@@H](S(=O)(=O)c2cccs2)C1`, with 719 s; and `CCOC(=O)c1c(C)oc2ncnc(N3CCc4cc(OC)c(OC)cc4C3C)c12` (centres undefined), with 981 s. The same measure for `Cn1c(=O)n(C)c2cc(N3CCCCC3)c(NC(=O)c3ccco3)cc21`: 872 s.

Values taken from the METLIN SMRT retention time set (Domingo-Almenara et al. 2019).
